In paper PMC7822874, “Chemoprotective antimalarials identified through quantitative high-throughput screening of Plasmodium blood and liver stage parasites” (Scientific Reports, 2021):
Where two headings read alike, the source gives them in different places.

Columns and labels:
[1] = tested on: P. berghei-ANKA-GFP-LucCON liver stage parasites in HepG2-A16-CD81EGFP cells; assay: P. berghei liver stage Pb-Luc assay, Method 1 (UCSD, 1536-well); type: cell-based, Plasmodium berghei; conditions: for Max Resp (signal direction of the dose response) / AC50 / Log AC50 (M): Method 1; for Max Resp (signal direction of the dose response): Decrease = decreasing P. berghei viability with dose, Increase = increasing signal, Inactive = no dose response; for activity at 1 µM / activity at 3 µM: 48 h, average of 2 wells on a 1536 well plate; for activity at 1 µM: 1 uM (compounds provided at 10 mM); for activity at 3 µM: 3 uM (compounds provided at 10 mM)
[2] = tested on: Plasmodium falciparum Dd2 asexual blood stage parasites; assay: microbe, parasite or virus in culture; set-up: species or system Plasmodium falciparum Dd2 in human erythrocytes; single determination (one 11-point concentration-response curve); conditions: Plasmodium falciparum, DD2, Erythrocyte, 72 h; read-out: AC50
[3] = in vitro; conditions: human
[4] = in vitro; conditions: human, n = 1
[5] = HepG2-A16-CD81EGFP cells, uninfected
[6] = Plasmodium berghei, Hill fit, 50% of maximum activity response, read-out: AC50
[7] = Plasmodium berghei, log10 of molar AC50 from Hill fit, read-out: Log AC50 (converted)
[8] = Hill fit, 50% of maximum activity response, read-out: AC50
[9] = log10 of molar AC50 from Hill fit
[10] = Plasmodium berghei, column 11, read-out: Pb-Luc (P. berghei liver stage), % of control, lower concentration, first repeat
[11] = Plasmodium berghei, column 12, read-out: Pb-Luc (P. berghei liver stage), % of control, lower concentration, second repeat
[12] = Plasmodium berghei, column 8, read-out: Pb-Luc (P. berghei liver stage), % of control, higher concentration, first repeat
[13] = Plasmodium berghei, column 9, read-out: Pb-Luc (P. berghei liver stage), % of control, higher concentration, second repeat

| SMILES | Max Resp (signal direction of the dose response) [1] | AC50 [2] | viability at 66 h [3, 5] | CC50 at 48 h ([4]; HepG2 cells) | AC50 [1, 6] | AC50 [1, 7] | viability at 48 h, 1 µM [3, 5] | viability at 48 h, 3 µM [3, 5] | further results |
| --- | --- | --- | --- | --- | --- | --- | --- | --- | --- |
| CCOC(=O)c1cnc(-n2nc(C)cc2C)nc1NC1CCCC1 [MLS000333072-01] | Inactive | 8410 nM | 107% | 17200 nM | – | – | – | – | – |
| O=C1c2ccccc2C(=O)c2[nH]c(=O)[nH]c21 [MLS001173438-01] | Decrease | 5960 nM | 95.7% | 10900 nM | 1580 nM | 1580 nM | – | – | – |
| N=c1ccn(Cc2ccc(Cl)c(Cl)c2)cc1 [MLS000080112-01] | Decrease | 6680 nM | 99.6% | 30600 nM | 1410 nM | 1410 nM | – | – | AC50 [1, 8]: 1580 nM; Log AC50 (M) [1, 9]: -5.800 M |
| O=C(Nc1ccc([N+](=O)[O-])cc1)Nc1nc(-c2ccc(Cl)s2)cs1 [MLS000722351-01] | Decrease | 2990 nM | 90% | 13700 nM | 178 nM | 178 nM | – | – | AC50 [1, 8]: 224 nM; Log AC50 (M) [1, 9]: -6.650 M |
| CC(=O)N(C)C1=C(N2CCOCC2)C(=O)c2ccccc2C1=O [MLS000570886-01] | Decrease | 841 nM | 92.5% | 10900 nM | 1260 nM | 1260 nM | – | – | AC50 [1, 8]: 1580 nM; Log AC50 (M) [1, 9]: -5.800 M |
| N=c1ccn(Cc2ccc(Cl)cc2Cl)cc1 [MLS000554049-01] | Inactive | 8410 nM | – | 19300 nM | – | – | 89.2% | – | viability at 48 h [3, 5]: 89.2% |
| O=C1Nc2ccccc2C1=NN=C(S)N1CCOCC1 [MLS000778251-01] | Decrease | 2110 nM | 86.1% | 15300 nM | 251 nM | 251 nM | – | – | AC50 [1, 8]: 316 nM; Log AC50 (M) [1, 9]: -6.500 M |
| CC(C)Nc1ccc(Nc2ccnc3cc4ccccc4cc23)cc1 [MLS000766754-01] | – | – | – | 27300 nM | – | – | 114% | 78% | activity at 1 µM [1, 10]: 101%; activity at 1 µM [1, 11]: 80%; activity at 3 µM [1, 12]: 10%; activity at 3 µM [1, 13]: 14% |
| COc1cc(NC2CCCCC2O)c2nc(-c3ccc(Cl)cc3)ccc2c1 (stereo not shown) [MLS000766166-01] | – | 5310 nM | – | 13700 nM | – | – | 111% | 101% | – |
| O=C(Nc1nc(-c2ccccn2)cs1)c1cccc(S(=O)(=O)N2CCOCC2)c1 [MLS002161290-01] | – | 5960 nM | – | 9680 nM | – | – | 98% | 60% | activity at 1 µM [1, 10]: 17%; activity at 1 µM [1, 11]: 16%; activity at 3 µM [1, 12]: 7%; activity at 3 µM [1, 13]: 7% |
| COc1cnc(-c2ccccn2)nc1Sc1c(Cl)cccc1Cl [MLS000325774-01] | – | 2990 nM | – | 24300 nM | – | – | 106% | 99% | – |
| CCCN(CCC)c1nc(-c2ccccn2)nc2ccccc12 [MLS001165172-01] | – | 5310 nM | – | 9680 nM | – | – | 112% | 90% | activity at 1 µM [1, 10]: 92%; activity at 1 µM [1, 11]: 102%; activity at 3 µM [1, 12]: 8%; activity at 3 µM [1, 13]: 7% |
| C/C(=N\NC(=O)c1ccccc1OCc1ccc(F)cc1)c1ccccn1 [MLS002162875-01] | – | 4730 nM | – | 17200 nM | – | – | 105% | 79% | – |
| COc1ccc(Nc2cc(O)c3ncccc3c2)cc1 [NCGC00183797-01] | – | 750 nM | – | 19300 nM | – | – | 89% | 73% | – |
| O=C1c2cc(F)ccc2-n2c1nc1ccccc1c2=O [MLS001216278-01] | Decrease | 119 nM | 95.7% | 12200 nM | 3.55 nM | 3.55 nM | – | – | AC50 [1, 8]: 4 nM; Log AC50 (M) [1, 9]: -8.400 M |
| c1ccc(CNc2nc(-c3ccccn3)nc3ccccc23)cc1 [MLS001165148-01] | – | 5310 nM | – | 10900 nM | – | – | 93% | 87% | – |
| CCOC(=O)C1CCN(C(=O)c2c(C)oc3c2C(=O)c2ccccc2C3=O)CC1 [MLS000724686-01] | – | 531 nM | 103% | 15300 nM | – | – | – | – | – |
| c1ccc(CCNc2nc(-c3ccccn3)nc3ccccc23)cc1 [MLS000769840-01] | Inactive | 4730 nM | – | 10900 nM | – | – | 96.1% | – | viability at 48 h [3, 5]: 96.1% |
| Cc1ccc(Cl)cc1NC(=O)c1cc2ccccc2cc1O [MLS000738149-01] | – | 1500 nM | – | – | – | – | – | – | activity at 1 µM [1, 10]: 92%; activity at 1 µM [1, 11]: 94%; activity at 3 µM [1, 12]: 38%; activity at 3 µM [1, 13]: 81%; viability at 48 h, 1 µM [3]: 104%; viability at 48 h, 3 µM [3]: 69%; CC50 at 48 h ([4]; hepg2): 21700 nM |
| O=C(NCCNc1ccnc2cc(Cl)ccc12)c1ccccc1F [MLS001163130-01] | – | 1680 nM | – | 27300 nM | – | – | 106% | 86% | – |
| CCN1CCN(c2ccc(Nc3ccnc4ccccc34)cc2)CC1 [MLS001360577-01] | – | 1060 nM | – | 17200 nM | – | – | 95% | 91% | – |
| c1ccc(CCNc2ccnc3cc4ccccc4cc23)cc1 [MLS000717866-01] | Decrease | 1680 nM | 93.8% | 10900 nM | 398 nM | 398 nM | – | – | AC50 [1, 8]: 501 nM; Log AC50 (M) [1, 9]: -6.300 M |
| O=C1C(Nc2ccccc2)=C/C(=N\S(=O)(=O)c2cccs2)c2ccccc21 [MLS000374486-01] | – | 335 nM | – | 12200 nM | – | – | 101% | 76% | – |
| Oc1ccc(-c2nnc(S)n2-c2ccc3c(c2)OCCO3)c(O)c1 [MLS000332001-01] | – | 2660 nM | – | 17200 nM | – | – | 98% | 95% | – |
| COc1ccccc1NS(=O)(=O)c1cc(NC(=O)c2ccc(Cl)nc2)ccc1Cl [MLS000417369-01] | Decrease | – | 96.5% | 19300 nM | 2000 nM | 2000 nM | – | – | AC50 [1, 8]: 2510 nM; Log AC50 (M) [1, 9]: -5.600 M |
